Read-outs that look alike come from different tables or passages of the source.
Key:
[1] = molecular target: KRas G12C (Homo sapiens, UniProt P01116, C118S/C51S/C80L/G12C); test: KRas G12C Modification Assay (LCMS detection of covalent adduct); type: binding; settings: normalized percent of control; tested at 5 μM concentration for 3 hours
In short: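 Covalent modification was read by reverse-phase LC/MS of intact protein after compound exposure, each reaction stopped at its time point with 25 mM acetic acid. Unmodified-protein signal, taken as percent of total, was normalised to untreated protein and reported as POC.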

[2] = test system: NCI-H358 cells (express KRas G12C), Phospho-ERK; test: Cellular inhibition of KRas G12C: Phospho-ERK in NCI-H358 cells; type: cell-based; settings: Homo sapiens, pERK(Thr202/Tyr204) normalized with GAPDH, NCI-H358 cells, 3 hours, read-out: IC50
In short: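 IC50 derived by 4-parameter fit of GAPDH-normalized pERK(Thr202/Tyr204) signal, as percent of DMSO control. Signal came from in-cell immunodetection with infrared secondaries after 3 h compound exposure of KRas G12C NCI-H358 cells at 0.5% DMSO.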

SMILES	POC [1]	IC50 ([2]; NCI-H358, 3 h)	IC50 [2]
Cc1cccc2cccc(N3CCc4c(nc(OC[C@@H]5CCCN5C)nc4N4CCN(C(=O)/C=C/CN(C)C)[C@@H](CC#N)C4)C3)c12 [Example 456, 2-((S)-1-((E)-4-(dimethylamino)but-2-enoyl)-4-(7-(8-methylnaphthalen-1-yl)-2-(((S)-1-methylpyrrolidin-2-yl)methoxy)-5,6,7,8-tetrahydropyrido[3,4-d]pyrimidin-4-yl)piperazin-2-yl)acetonitrile]	C (“C”>50% POC)	0.1 to 1000 nM	–
C=CC(=O)N1CCN(c2nc(OCC3CCN(CCOC)C3)nc3c2CCN(c2cc(O)cc4ccccc24)C3)CC1 (stereo not shown) [Example 103, 1-(4-(7-(3-hydroxynaphthalen-1-yl)-2-((1-(2-methoxyethyl)pyrrolidin-3-yl)methoxy)-5,6,7,8-tetrahydropyrido[3,4-d]pyrimidin-4-yl)piperazin-1-yl)prop-2-en-1-one]	C (“C”>50% POC)	0.1 to 1000 nM	–
C=CC(=O)N1CCN(c2nc(OC[C@@H]3CCCN3C)nc3c2CCN(c2cc(O)cc4ccccc24)C3)C[C@@H]1CC#N [Example 317, 2-((S)-1-acryloyl-4-(7-(3-hydroxynaphthalen-1-yl)-2-(((S)-1-methylpyrrolidin-2-yl)methoxy)-5,6,7,8-tetrahydropyrido[3,4-d]pyrimidin-4-yl)piperazin-2-yl)acetonitrile]	C (“C”>50% POC)	0.1 to 1000 nM	–
C=CC(=O)N1CCN(c2nc(OCCCCN(C)C)nc3c2CCN(c2cc(O)cc4ccccc24)C3)CC1 [Example 40, 1-(4-(2-(4-(dimethylamino)butoxy)-7-(3-hydroxynaphthalen-1-yl)-5,6,7,8-tetrahydropyrido[3,4-d]pyrimidin-4-yl)piperazin-1-yl)prop-2-en-1-one]	C (“C”>50% POC)	0.1 to 1000 nM	–
C=CC(=O)N1C[C@H]2CC[C@@H](C1)N2c1nc(OC(C)CN(C)C)nc2c1CCN(c1cc(O)cc3ccccc13)C2 (stereo partly drawn) [Example 46, 1-((1R,5S)-8-(2-((1-(dimethylamino)propan-2-yl)oxy)-7-(3-hydroxynaphthalen-1-yl)-5,6,7,8-tetrahydropyrido[3,4-d]pyrimidin-4-yl)-3,8-diazabicyclo[3.2.1]octan-3-yl)prop-2-en-1-one]	A (“A”≤25% POC)	–	> 1000 nM
C=CC(=O)N1CCN(c2nc(OCCCN3C[C@@H](F)[C@@H](F)C3)nc3c2CCN(c2cc(O)cc4ccccc24)C3)CC1 [Example 208, 1-(4-(2-(3-((3R,4S)-3,4-difluoropyrrolidin-1-yl)propoxy)-7-(3-hydroxynaphthalen-1-yl)-5,6,7,8-tetrahydropyrido[3,4-d]pyrimidin-4-yl)piperazin-1-yl)prop-2-en-1-one]	C (“C”>50% POC)	–	> 1000 nM
C=CC(=O)N1CCN(c2nc(OCC3CCN(Cc4ccccc4)C3)nc3c2CCN(c2cc(O)cc4ccccc24)C3)CC1 (stereo not shown) [Example 189, 1-(4-(2-((1-benzylpyrrolidin-3-yl)methoxy)-7-(3-hydroxynaphthalen-1-yl)-5,6,7,8-tetrahydropyrido[3,4-d]pyrimidin-4-yl)piperazin-1-yl)prop-2-en-1-one]	C (“C”>50% POC)	> 1000 nM	–
C=CC(=O)N1CCN(c2nc(OC[C@@H]3CCCN3C)nc3c2CCN(c2cccc4ccc(F)cc24)C3)CC1CC#N (stereo partly shown) [Example 302]	C (“C”>50% POC)	0.1 to 1000 nM	–
C=CC(=O)N1CCN(c2nc(OC[C@]3(C)CCCN3C)nc3c2CCN(c2cccc4ccccc24)C3)CC1CC#N (stereo partly drawn) [Example 394, 2-(1-acryloyl-4-(2-(((S)-1,2-dimethylpyrrolidin-2-yl)methoxy)-7-(naphthalen-1-yl)-5,6,7,8-tetrahydropyrido[3,4-d]pyrimidin-4-yl)piperazin-2-yl)acetonitrile]	C (“C”>50% POC)	0.1 to 1000 nM	–

The next lines start with results.

POC [1]	SMILES	IC50 ([2]; NCI-H358, 3 h)	IC50 [2]
C (“C”>50% POC)	C=CC(=O)N1CCN(c2nc(OCCCN3C[C@@H]4C[C@H]3CO4)nc3c2CCN(c2cccc4ccccc24)C3)CC1CC#N (stereo partly drawn) [Example 154, 2-[4-[7-(1-naphthyl)-2-[3-[(1S,4S)-2-oxa-5-azabicyclo[2.2.1]heptan-5-yl]propoxy]-6,8-dihydro-5H-pyrido[3,4-d]pyrimidin-4-yl]-1-prop-2-enoyl-piperazin-2-yl]acetonitrile]	0.1 to 1000 nM	–
B (“B”>25% POC−≤50% POC)	C=CC(=O)N1CCN(c2nc(O[C@H](C)CN(C)C)nc3c2CCN(c2cccc4ccccc24)C3)CC1CC#N (stereo partly drawn) [Example 151, 2-(1-acryloyl-4-(2-(((R)-1-(dimethylamino)propan-2-yl)oxy)-7-(naphthalen-1-yl)-5,6,7,8-tetrahydropyrido[3,4-d]pyrimidin-4-yl)piperazin-2-yl)acetonitrile]	> 1000 nM	–
C (“C”>50% POC)	C=CC(=O)N1CCN(c2nc(OC[C@@H]3CCCN3CC(=O)N(C)C)nc3c2CCN(c2cccc4ccccc24)C3)C[C@@H]1CC#N [Example 401, 2-((S)-2-(((4-((S)-4-acryloyl-3-(cyanomethyl)piperazin-1-yl)-7-(naphthalen-1-yl)-5,6,7,8-tetrahydropyrido[3,4-d]pyrimidin-2-yl)oxy)methyl)pyrrolidin-1-yl)-N,N-dimethylacetamide]	0.1 to 1000 nM	–
C (“C”>50% POC)	C=CC(=O)N1CCN(c2nc(OC[C@@H]3CCCN3C)nc3c2CCN(c2cc(O)cc4ccccc24)C3)C(CO)C1 (stereo partly drawn) [Example 169, 1-[3-(hydroxymethyl)-4-[7-(3-hydroxy-1-naphthyl)-2-[[(2S)-1-methylpyrrolidin-2-yl]methoxy]-6,8-dihydro-5H-pyrido[3,4-d]pyrimidin-4-yl]piperazin-1-yl]prop-2-en-1-one]	0.1 to 1000 nM	–
C (“C”>50% POC)	C=CC(=O)N1CCN(c2nc(OC3CCN(C4CC4)CC3)nc3c2CCN(c2cc(O)cc4ccccc24)C3)CC1 [Example 100, 1-(4-(2-((1-cyclopropylpiperidin-4-yl)oxy)-7-(3-hydroxynaphthalen-1-yl)-5,6,7,8-tetrahydropyrido[3,4-d]pyrimidin-4-yl)piperazin-1-yl)prop-2-en-1-one]	> 1000 nM	–
C (“C”>50% POC)	Cc1cccc(N2CCc3c(nc(OC[C@@H]4CCCN4C)nc3N3CCN(C(=O)/C=C/CN(C)C)[C@@H](CC#N)C3)C2)c1C [Example 403, 2-((S)-1-((E)-4-(dimethylamino)but-2-enoyl)-4-(7-(2,3-dimethylphenyl)-2-(((S)-1-methylpyrrolidin-2-yl)methoxy)-5,6,7,8-tetrahydropyrido[3,4-d]pyrimidin-4-yl)piperazin-2-yl)acetonitrile]	0.1 to 1000 nM	–
C (“C”>50% POC)	C=CC(=O)N1CCN(c2nc(N3CCN(C)CC3)nc3c2CCN(c2cc(O)cc4ccccc24)C3)CC1 [Example 12, 1-(4-(7-(3-hydroxynaphthalen-1-yl)-2-(4-methylpiperazin-1-yl)-5,6,7,8-tetrahydropyrido[3,4-d]pyrimidin-4-yl)piperazin-1-yl)prop-2-en-1-one]	> 1000 nM	–
C (“C”>50% POC)	C=CC(=O)N1CCN(c2nc(OC[C@@H]3CCCN3C)nc3c2CCN(c2cc(O)cc4ccccc24)C3)[C@@H](C)C1 [Example 202, 1-((S)-4-(7-(3-hydroxynaphthalen-1-yl)-2-(((S)-1-methylpyrrolidin-2-yl)methoxy)-5,6,7,8-tetrahydropyrido[3,4-d]pyrimidin-4-yl)-3-methylpiperazin-1-yl)prop-2-en-1-one]	0.1 to 1000 nM	–

From patent US10125134B2 (Mirati Therapeutics, Inc., priority 2016, dated 2018)
